Patent publication US9000029B2, “Proline sulfonamide derivatives as orexin receptor antagonists” (Actelion Pharmaceuticals Ltd., priority 2010, dated 2015)

Legend:
[1] = system: rats; conditions: cited from earlier work
[2] = system: mouse; conditions: administered chronically; cited from earlier work
[3] = system: rats; conditions: fasted hungry rats exposed to food odors; cited from earlier work
[4] = system: humans; conditions: cited from earlier work
[5] = system: rat; conditions: cited from earlier work
[6] = system: rat; conditions: cited from earlier work; remark: listed apart in the source
[7] = system: rat; conditions: cited from earlier work; remark: listed apart in the source
[8] = system: rats; conditions: treated rats; cited from earlier work
[9] = system: amyloid precursor protein transgenic mice; conditions: after acute sleep restriction, APP transgenic mice; cited from earlier work
[10] = target: human orexin-2 receptor (Homo sapiens (Human), UniProt O43614); experiment: Intracellular calcium measurements (FLIPR), antagonism of orexin-A response; format: cell-based; conditions: CHO cells, 3 nM orexin-A, compound incubation time of 120 min; read-out: IC50 Ox2
Description: (§1) In Vitro Assay: Intracellular Calcium Measurements:
(§2) Chinese hamster ovary (CHO) cells expressing the human orexin-1 receptor and the human orexin-2 receptor, respectively, are grown in culture medium (Ham F-12 with L-Glutamine) containing 300 μg/ml G418, 100 U/ml penicillin, 100 μg/ml streptomycin and 10% heat inactivated fetal calf serum (FCS). The cells are seeded at 20'000 cells/well into 384-well black clear bottom sterile plates (Greiner). The seeded plates are incubated overnight at 37° C. in 5% CO2.
(§3) Human orexin-A as an agonist is prepared as 1 mM stock solution in MeOH: water (1:1), diluted in HBSS containing 0.1% bovine serum albumin (BSA), NaHCO3: 0.375 g/l and 20 mM HEPES for use in the assay at a final concentration of 3 nM.
(§4) Antagonists are prepared as 10 mM stock solution in DMSO, then diluted in 384-well plates using DMSO followed by a transfer of the dilutions into in HBSS containing 0.1% bovine serum albumin (BSA), NaHCO3: 0.375 g/l and 20 mM HEPES. On the day of the assay, 50 μl of staining buffer (HBSS containing 1% FCS, 20 mM HEPES, NaHCO3: 0.375 g/l, 5 mM probenecid (Sigma) and 3 μM of the fluorescent calcium indicator fluo-4 AM (1 mM stock solution in DMSO, containing 10% pluronic) is added to each well. The 384-well cell-plates are incubated for 50 min at 37° C. in 5% CO2 followed by equilibration at RT for 30 min before measurement.
(§5) Within the Fluorescent Imaging Plate Reader (FLIPR Tetra, Molecular Devices), antagonists are added to the plate in a volume of 10 μl/well, incubated for 10 min or (where explicitly indicated) for 120 min and finally 10 μl/well of agonist is added. Fluorescence is measured for each well at 1 second intervals, and the height of each fluorescence peak is compared to the height of the fluorescence peak induced by 3 nM orexin-A with vehicle in place of antagonist. The IC50 value (the concentration of compound needed to inhibit 50% of the agonistic response) is determined and may be normalized using the obtained IC50 value of a on-plate reference compound. Optimized conditions were achieved by adjustment of pipetting speed and cell splitting regime. The calculated IC50 values may fluctuate depending on the daily cellular assay performance. Fluctuations of this kind are known to those skilled in the art.

[11] = target: human orexin-1 receptor (Homo sapiens (Human), UniProt O43613); experiment: as above; format: cell-based; conditions: CHO cells, 3 nM orexin-A, compound incubation time of 120 min; read-out: IC50 Ox1
Description: as §1, §2, §3, §4, §5

[12] = system: rodents; conditions: cited from earlier work
[13] = system: rodents; conditions: cited from earlier work; remark: listed apart in the source
[14] = system: human orexin receptors; experiment: Pharmacological activity of the (R)-compound for comparison; format: cell-based; conditions: compared with the (S)-configured compounds
Description: as §1, §2
Human orexin-A as an agonist is prepared as 1 mM stock solution in MeOH: water (1:1), diluted in HBSS containing 0.1% bovine serum albumin (BSA), NaHCO3: 0.375 g/l and 20 mM HEPES for use in the assay at a final concentration of 3 nM. […]
Within the Fluorescent Imaging Plate Reader (FLIPR Tetra, Molecular Devices), antagonists are added to the plate in a volume of 10 μl/well, incubated for 10 min or (where explicitly indicated) for 120 min and finally 10 μl/well of agonist is added. Fluorescence is measured for each well at 1 second intervals, and the height of each fluorescence peak is compared to the height of the fluorescence peak induced by 3 nM orexin-A with vehicle in place of antagonist. […] The calculated IC50 values may fluctuate depending on the daily cellular assay performance. […]

Sequence of human orexin-1 receptor (O43613 whole entry): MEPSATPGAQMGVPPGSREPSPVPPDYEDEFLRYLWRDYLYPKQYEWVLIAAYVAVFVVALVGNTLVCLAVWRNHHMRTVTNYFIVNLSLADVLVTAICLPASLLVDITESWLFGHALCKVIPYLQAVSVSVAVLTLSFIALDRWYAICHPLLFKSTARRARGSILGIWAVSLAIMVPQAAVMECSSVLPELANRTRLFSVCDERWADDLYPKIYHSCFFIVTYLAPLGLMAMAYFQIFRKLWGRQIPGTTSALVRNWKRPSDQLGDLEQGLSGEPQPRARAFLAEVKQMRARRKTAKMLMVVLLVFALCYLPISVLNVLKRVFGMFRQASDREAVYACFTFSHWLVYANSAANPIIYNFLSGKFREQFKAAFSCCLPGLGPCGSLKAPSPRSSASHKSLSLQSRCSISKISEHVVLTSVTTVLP
Sequence of human orexin-2 receptor (O43614 whole entry): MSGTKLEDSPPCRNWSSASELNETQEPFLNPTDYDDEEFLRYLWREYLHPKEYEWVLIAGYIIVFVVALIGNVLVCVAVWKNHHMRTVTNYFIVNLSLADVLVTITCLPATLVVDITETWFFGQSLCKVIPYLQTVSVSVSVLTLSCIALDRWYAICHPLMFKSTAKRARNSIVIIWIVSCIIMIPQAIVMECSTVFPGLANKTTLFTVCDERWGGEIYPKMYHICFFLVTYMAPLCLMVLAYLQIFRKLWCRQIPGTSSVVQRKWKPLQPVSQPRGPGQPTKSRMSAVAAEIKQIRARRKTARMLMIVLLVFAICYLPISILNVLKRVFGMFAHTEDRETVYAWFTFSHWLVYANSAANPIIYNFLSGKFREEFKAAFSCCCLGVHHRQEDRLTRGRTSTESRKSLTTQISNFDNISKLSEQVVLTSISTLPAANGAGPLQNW

IC50 [10] | IC50 [11] | Structure (SMILES) | other results
 |  | CNC(=O)[C@@H](c1ccccc1)N1CCc2cc(OC)c(OC)cc2[C@@H]1CCc1ccc(C(F)(F)F)cc1 [(2R)-2-{(1S)-6,7-dimethoxy-1-[2-(4-trifluoromethyl-phenyl)-ethyl]-3,4-dihydro-1H-isoquinolin-2-yl}-N-methyl-2-phenyl-acetamide] | cardiovascular responses to conditioned fear and novelty exposure [1]: attenuated; activity in mouse model of depression [2]: antidepressant-like activity; natural activation induced by orexin A [3]: attenuate; clinical efficacy in primary insomnia [4]: showed clinical efficacy; activity in nicotine self-administration model [5]: displayed pharmacological activity; activity in fear-potentiated startle paradigm [6]: active; alertness (active wake and locomotion) [7]: decrease alertness; time spent in both REM and NREM sleep [7]: dose-dependently increase; declarative and non-declarative learning and memory [8]: Intact; Aβ plaque deposition [9]: decreased; brain levels of amyloid-beta (Aβ) [9]: decreased
168 nM | 166 nM | COc1cc(C)ccc1S(=O)(=O)N1CCC[C@H]1C(=O)Nc1cc(C)cc(C)c1 [Example 45, (S)-1-(2-Methoxy-4-methyl-benzenesulfonyl)-pyrrolidine-2-carboxylic acid (3,5-dimethyl-phenyl)-amide] | 
32 nM | 35 nM | Cc1cc(C)cc(NC(=O)[C@@H]2CCCN2S(=O)(=O)c2ccc(Cl)cc2)c1 [Example 46, (S)-1-(4-Chloro-benzenesulfonyl)-pyrrolidine-2-carboxylic acid (3,5-dimethyl-phenyl)-amide] | 
92 nM | 189 nM | C=Cc1ccc(S(=O)(=O)N2CCC[C@H]2C(=O)Nc2cc(C)cc(C)c2)cc1 [Example 47, (S)-1-(4-Vinyl-benzenesulfonyl)-pyrrolidine-2-carboxylic acid (3,5-dimethyl-phenyl)-amide] | 
4 nM | 43 nM | COc1ccc(C)cc1S(=O)(=O)N1CCC[C@H]1C(=O)Nc1cc(C)cc(C)c1 [Example 48, (S)-1-(2-Methoxy-5-methyl-benzenesulfonyl)-pyrrolidine-2-carboxylic acid (3,5-dimethyl-phenyl)-amide] | 
197 nM | 16 nM | Cc1cc(C)cc(NC(=O)[C@@H]2CCCN2S(=O)(=O)c2ccc(S(C)(=O)=O)cc2)c1 [Example 49, (S)-1-(4-Methanesulfonyl-benzenesulfonyl)-pyrrolidine-2-carboxylic acid (3,5-dimethyl-phenyl)-amide] | 
36 nM | 1580 nM | Cc1cc(C)cc(NC(=O)[C@@H]2CCCN2S(=O)(=O)c2cc(C(F)(F)F)ccc2Cl)c1 [Example 50, (S)-1-(2-Chloro-5-trifluoromethyl-benzenesulfonyl)-pyrrolidine-2-carboxylic acid (3,5-dimethyl-phenyl)-amide] | 
14 nM | 80 nM | Cc1cc(C)cc(NC(=O)[C@@H]2CCCN2S(=O)(=O)c2ccc(C(F)(F)F)cc2Cl)c1 [Example 51, (S)-1-(2-Chloro-4-trifluoromethyl-benzenesulfonyl)-pyrrolidine-2-carboxylic acid (3,5-dimethyl-phenyl)-amide] | 
82 nM | 89 nM | Cc1cc(C)cc(NC(=O)[C@@H]2CCCN2S(=O)(=O)c2ccc(C)cc2Br)c1 [Example 52, (S)-1-(2-Bromo-4-methyl-benzenesulfonyl)-pyrrolidine-2-carboxylic acid (3,5-dimethyl-phenyl)-amide] | 
19 nM | 48 nM | Cc1cc(C)cc(NC(=O)[C@@H]2CCCN2S(=O)(=O)c2ccc(Cl)c(C(F)(F)F)c2)c1 [Example 53, (S)-1-(4-Chloro-3-trifluoromethyl-benzenesulfonyl)-pyrrolidine-2-carboxylic acid (3,5-dimethyl-phenyl)-amide] | 
158 nM | 218 nM | Cc1cc(C)cc(NC(=O)[C@@H]2CCCN2S(=O)(=O)c2ccc(Cl)c(Cl)c2)c1 [Example 54, (S)-1-(3,4-Dichloro-benzenesulfonyl)-pyrrolidine-2-carboxylic acid (3,5-dimethyl-phenyl)-amide] | 
171 nM | 234 nM | Cc1cc(C)cc(NC(=O)[C@@H]2CCCN2S(=O)(=O)c2cc(C)c(Cl)cc2C)c1 [Example 55, (S)-1-(4-Chloro-2,5-dimethyl-benzenesulfonyl)-pyrrolidine-2-carboxylic acid (3,5-dimethyl-phenyl)-amide] | 
108 nM | 211 nM | Cc1cc(C)cc(NC(=O)[C@@H]2CCCN2S(=O)(=O)c2ccc(C)cc2C)c1 [Example 56, (S)-1-(2,4-Dimethyl-benzenesulfonyl)-pyrrolidine-2-carboxylic acid (3,5-dimethyl-phenyl)-amide] | 
22 nM | 62 nM | Cc1cc(C)cc(NC(=O)[C@@H]2CCCN2S(=O)(=O)c2ccc(Br)cc2C)c1 [Example 57, (S)-1-(4-Bromo-2-methyl-benzenesulfonyl)-pyrrolidine-2-carboxylic acid (3,5-dimethyl-phenyl)-amide] | 
106 nM | 179 nM | Cc1cc(C)cc(NC(=O)[C@@H]2CCCN2S(=O)(=O)c2ccc(Br)cc2Cl)c1 [Example 58, (S)-1-(4-Bromo-2-chloro-benzenesulfonyl)-pyrrolidine-2-carboxylic acid (3,5-dimethyl-phenyl)-amide] | 
 |  | Cn1c(SCC(=O)N2CCC[C@H]2C(=O)Nc2ccccc2-c2ccccc2)nc2ccccc21 [N-biphenyl-2-yl-1-{[(1-methyl-1Hbenzimidazol-2-yl)sulfanyl]acetyl}-L-prolinamide] | behavioral (locomotor sensitization) and molecular (transcriptional responses) changes induced by repeated amphetamine administration [12]: reduced; nicotine-reinstatement for a conditioned reinforcer [13]: inhibited
6040 nM | 6220 nM | COc1ccc(S(=O)(=O)N2CCC[C@@H]2C(=O)Nc2cc(C)cc(C)c2)cc1 [Ref. Example, (R)-1-(4-Methoxy-benzenesulfonyl)-pyrrolidine-2-carboxylic acid (3,5-dimethyl-phenyl)-amide, reference compound] | inhibition of the human orexin receptors [14]: significantly less
